Measured values published in patent US9169254B2, “Spiroimidazolone derivative” (Chugai Seiyaku Kabushiki Kaisha, priority 2009, dated 2015).
Structures can show the parent of a compound that is named as a salt.

molecular target: T1, human PTH1 receptor (Homo sapiens, UniProt Q03431); assay: In vitro cAMP signal activity in HKRK-B7 cells (LLC-PK1 cells overexpressing the human PTH1 receptor); format: cell-based; details: HKRK-B7 cells; compound at 1×10^−3 M; […]; 0.1 µM
T1 sequence (Q03431 27-593): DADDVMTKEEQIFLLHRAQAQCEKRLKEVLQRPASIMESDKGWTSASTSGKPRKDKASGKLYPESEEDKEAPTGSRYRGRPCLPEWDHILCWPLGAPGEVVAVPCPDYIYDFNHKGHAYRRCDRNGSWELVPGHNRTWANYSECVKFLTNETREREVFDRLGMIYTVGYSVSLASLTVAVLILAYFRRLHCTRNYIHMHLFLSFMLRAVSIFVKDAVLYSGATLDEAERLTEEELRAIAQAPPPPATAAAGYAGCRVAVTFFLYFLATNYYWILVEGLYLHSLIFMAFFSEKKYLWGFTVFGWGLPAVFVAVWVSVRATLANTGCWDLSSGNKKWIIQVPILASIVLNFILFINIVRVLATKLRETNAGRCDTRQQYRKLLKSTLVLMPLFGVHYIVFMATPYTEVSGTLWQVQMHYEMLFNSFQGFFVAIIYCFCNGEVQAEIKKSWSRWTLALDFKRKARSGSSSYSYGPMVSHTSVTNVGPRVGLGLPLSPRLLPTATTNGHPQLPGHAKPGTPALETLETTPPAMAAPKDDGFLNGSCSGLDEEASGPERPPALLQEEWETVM

Question: With `Cc1cc(C(=O)N2CCNCC2)cc(C)c1/C=C/S(=O)(=O)N1CCC2(CC1)N=C(c1cccc(OC(F)(F)F)c1)NC2=O` [Compound 446, 8-{(E)-2-[2,6-dimethyl-4-(piperazine-1-carbonyl)-phenyl]-ethenesulfonyl}-2-(3-trifluoromethoxy-phenyl)-1,3,8-triaza-spiro[4.5]dec-1-en-4-one hydrochloride] as the compound, how does the “cAMP production activity (%)” value read?
Answer: 49%

same assay, conditions: HKRK-B7 cells; compound at 1×10^−3 M; cAMP produced as percentage of that produced by hPTH(1-34) at 100 nM

Question: `Cc1cc(C(=O)N2CCC(O)(CF)CC2)cc(C)c1/C=C/S(=O)(=O)N1CCC2(CC1)N=C(c1ccc(OC(F)(F)F)c(OCCCC(F)(F)F)c1)NC2=O` [Compound 1273, 8-{(E)-2-[4-(4-fluoromethyl-4-hydroxy-piperidine-1-carbonyl)-2,6-dimethyl-phenyl]-ethenesulfonyl}-2-[3-(4,4,4-trifluoro-butoxy)-4-trifluoromethoxy-phenyl]-1,3,8-triaza-spiro[4.5]dec-1-en-4-one] was tested. Which “cAMP production activity (%)” value did it give?
Answer: 81%

Question: `Cc1cc(NCCO)ccc1CCS(=O)(=O)N1CCC2(CC1)N=C(c1ccc(C(F)(F)F)cc1)NC2=O` [Compound 161, 8-{2-[4-(2-hydroxy-ethylamino)-2-methyl-phenyl]-ethanesulfonyl}-2-(4-trifluoromethyl-phenyl)-1,3,8-triaza-spiro[4.5]dec-1-en-4-one] was tested. Which “cAMP production activity (%)” value did it give?
Answer: 69%

Question: How did the “cAMP production activity (%)” value turn out when `CC(=O)Nc1ccc(CCS(=O)(=O)N2CCC3(CC2)N=C(C2CCC(C)(C)CC2)NC3=O)c(C)c1` [Compound 925, N-(4-{2-[2-(4,4-dimethyl-cyclohexyl)-4-oxo-1,3,8-triaza-spiro[4.5]dec-1-ene-8-sulfonyl]-ethyl}-3-methyl-phenyl)-acetamide] was run?
Answer: 69%

Question: How did the “cAMP production activity (%)” value turn out when `Cc1cc(CN2C(=O)CCC2=O)cc(C)c1/C=C/S(=O)(=O)N1CCC2(CC1)N=C(C1CCC(CCC(F)(F)F)CC1)NC2=O` (stereo not drawn) [Compound 557, 1-[3,5-dimethyl-4-((E)-2-{4-oxo-2-[4-(3,3,3-trifluoro-propyl)-cyclohexyl]-1,3,8-triaza-spiro[4.5]dec-1-ene-8-sulfonyl}-vinyl)-benzyl]-pyrrolidine-2,5-dione] was run?
Answer: 50%

Question: `C=CCCCN(C)C(=O)c1ccc(CCS(=O)(=O)N2CCC3(CC2)N=C(c2cc(OCCC=C)cc(C(F)(F)F)c2)NC3=O)c(C)c1` [Compound 1405, 4-{2-[2-(3-But-3-enyloxy-5-trifluoromethyl-phenyl)-4-oxo-1,3,8-triaza-spiro[4.5]dec-1-ene-8-sulfonyl]-ethyl}-3,N-dimethyl-N-pent-4-enyl-benzamide] was tested. Which “cAMP production activity (%)” value did it give?
Answer: 51%

Question: With `Cc1cc(C(=O)N(C)C)ccc1CCS(=O)(=O)N1CCC2(CC1)N=C(c1cccc(C)c1C)NC2=O` [Compound 113, 4-{2-[2-(2,3-dimethyl-phenyl)-4-oxo-1,3,8-triaza-spiro[4.5]dec-1-ene-8-sulfonyl]-ethyl}-3,N,N-trimethyl-benzamide] as the compound, how does the “cAMP production activity (%)” value read?
Answer: 111%

Question: With `Cc1cc(C(=O)N(C)C)ccc1CCS(=O)(=O)N1CCC2(CC1)N=C(c1cccc(COCC(F)F)c1)NC2=O` [Compound 169, 4-(2-{2-[3-(2,2-difluoro-ethoxymethyl)-phenyl]-4-oxo-1,3,8-triaza-spiro[4.5]dec-1-ene-8-sulfonyl}-ethyl)-3,N,N-trimethyl-benzamide] as the compound, how does the “cAMP production activity (%)” value read?
Answer: 71%

Question: For `Cc1cc(OCCCN(C)C)ccc1CCS(=O)(=O)N1CCC2(CC1)N=C(c1cccc(OC(F)(F)F)c1)NC2=O` [Compound 295, 8-{2-[4-(3-dimethylamino-propoxy)-2-methyl-phenyl]-ethanesulfonyl}-2-(3-trifluoromethoxy-phenyl)-1,3,8-triaza-spiro[4.5]dec-1-en-4-one], which “cAMP production activity (%)” value is on record?
Answer: 95%

Question: `Cc1cc(N2CCOCC2=O)ccc1/C=C/S(=O)(=O)N1CCC2(CC1)N=C(c1cccc(OC(F)(F)F)c1)NC2=O` [Compound 617, 8-{(E)-2-[2-methyl-4-(3-oxo-morpholin-4-yl)-phenyl]-ethenesulfonyl}-2-(3-trifluoromethoxy-phenyl)-1,3,8-triaza-spiro[4.5]dec-1-en-4-one] was tested. Which “cAMP production activity (%)” value did it give?
Answer: 96%

Question: For `O=C1NC(C2CCCCC2)=NC12CCN(S(=O)(=O)c1cccc3ccccc13)CC2` [Compound 57, 2-cyclohexyl-8-(naphthalene-1-sulfonyl)-1,3,8-triaza-spiro[4.5]dec-1-en-4-one], which “cAMP production activity (%)” value is on record?
Answer: 35%

Question: How did the “cAMP production activity (%)” value turn out when `Cc1cc(C(=O)N(C)C)ccc1CCS(=O)(=O)N1CCC2(CC1)N=C(C1CCC(C(C)(C)C)CC1)NC2=O` (stereo not drawn) [Compound 895, 4-{2-[2-(4-tert-butyl-cyclohexyl)-4-oxo-1,3,8-triaza-spiro[4.5]dec-1-ene-8-sulfonyl]-ethyl}-3,N,N-trimethyl-benzamide] was run?
Answer: 90%

Question: How did the “cAMP production activity (%)” value turn out when `COCCN(C(C)=O)c1ccc(CCS(=O)(=O)N2CCC3(CC2)N=C(C2CCC(CCC(F)(F)F)CC2)NC3=O)c(C)c1` (stereo not drawn) [Compound 755, N-(2-methoxy-ethyl)-N-[3-methyl-4-(2-{4-oxo-2-[4-(3,3,3-trifluoro-propyl)-cyclohexyl]-1,3,8-triaza-spiro[4.5]dec-1-ene-8-sulfonyl}-ethyl)-phenyl]-acetamide] was run?
Answer: 74%

Question: For `Cc1cc(C(=O)N2CCN(c3nccs3)CC2)ccc1CCS(=O)(=O)N1CCC2(CC1)N=C(c1cccc(C(F)(F)F)c1)NC2=O` [Compound 364, 8-{2-[2-methyl-4-(4-thiazol-2-yl-piperazine-1-carbonyl)-phenyl]-ethanesulfonyl}-2-(3-trifluoromethyl-phenyl)-1,3,8-triaza-spiro[4.5]dec-1-en-4-one], which “cAMP production activity (%)” value is on record?
Answer: 78%

Question: Which “cAMP production activity (%)” value does the source give for `CC(=O)Nc1ccc(CCS(=O)(=O)N2CCC3(CC2)N=C(Nc2cccc(C(F)(F)F)c2)NC3=O)c(C)c1` [Compound 1402, N-(3-methyl-4-{2-[4-oxo-2-(3-trifluoromethyl-phenylamino)-1,3,8-triaza-spiro[4.5]dec-1-ene-8-sulfonyl]-ethyl}-phenyl)-acetamide] here?
Answer: 69%

Question: For `CC(=O)Nc1ccc(CCS(=O)(=O)N2CCC3(CC2)N=C(C2CCCCCC2)NC3=O)c(C)c1` [Compound 917, N-{4-[2-(2-Cycloheptyl-4-oxo-1,3,8-triaza-spiro[4.5]dec-1-ene-8-sulfonyl)-ethyl]-3-methyl-phenyl}-acetamide], which “cAMP production activity (%)” value is on record?
Answer: 69%

Question: For `CC(=O)N(C)c1ccc(/C=C/S(=O)(=O)N2CCC3(CC2)N=C(c2cccc(OC(F)(F)F)c2)NC3=O)c(C)c1` [Compound 237, N-methyl-N-(3-methyl-4-{(E)-2-[4-oxo-2-(3-trifluoromethoxy-phenyl)-1,3,8-triaza-spiro[4.5]dec-1-ene-8-sulfonyl]-vinyl}-phenyl)-acetamide], which “cAMP production activity (%)” value is on record?
Answer: 74%

Question: For `Cc1cc(N2C(=O)CC[C@H]2CO)ccc1CCS(=O)(=O)N1CCC2(CC1)N=C(c1ccc(F)c(C(F)(F)F)c1)NC2=O` [Compound 858, 2-(4-fluoro-3-trifluoromethyl-phenyl)-8-{2-[4-((S)-2-hydroxymethyl-5-oxo-pyrrolidin-1-yl)-2-methyl-phenyl]-ethanesulfonyl}-1,3,8-triaza-spiro[4.5]dec-1-en-4-one], which “cAMP production activity (%)” value is on record?
Answer: 100%

Question: With `O=C(NCCO)Nc1ccc(CCS(=O)(=O)N2CCC3(CC2)N=C(C2CCCCC2)NC3=O)c(C(F)(F)F)c1` [Compound 278, 1-{4-[2-(2-cyclohexyl-4-oxo-1,3,8-triaza-spiro[4.5]dec-1-ene-8-sulfonyl)-ethyl]-3-trifluoromethyl-phenyl}-3-(2-hydroxy-ethyl)-urea] as the compound, how does the “cAMP production activity (%)” value read?
Answer: 59%

Question: `Cc1cc(C(=O)N2CCC(C)(O)CC2)cc(C)c1/C=C/S(=O)(=O)N1CCC2(CC1)N=C(c1ccc3c(c1)OC(F)(F)O3)NC2=O` [Compound 1163, 2-(2,2-Difluoro-benzo[1,3]dioxol-5-yl)-8-{(E)-2-[4-(4-hydroxy-4-methyl-piperidine-1-carbonyl)-2,6-dimethyl-phenyl]-ethenesulfonyl}-1,3,8-triaza-spiro[4.5]dec-1-en-4-one] was tested. Which “cAMP production activity (%)” value did it give?
Answer: 101%

Question: How did the “cAMP production activity (%)” value turn out when `CC(=O)N(CCO)c1cccc(CCS(=O)(=O)N2CCC3(CC2)N=C(c2cccc(OC(F)(F)F)c2)NC3=O)c1C` [Compound 327, N-(2-Hydroxy-ethyl)-N-(2-methyl-3-{2-[4-oxo-2-(3-trifluoromethoxy-phenyl)-1,3,8-triaza-spiro[4.5]dec-1-ene-8-sulfonyl]-ethyl}-phenyl)-acetamide] was run?
Answer: 84%

Question: How did the “cAMP production activity (%)” value turn out when `Cc1cc(C(=O)N2CCN(C)CC2)ccc1/C=C/S(=O)(=O)N1CCC2(CC1)N=C(c1cccc(C(F)(F)F)c1)NC2=O` [Compound 216, 8-{(E)-2-[2-methyl-4-(4-methyl-piperazine-1-carbonyl)-phenyl]-ethenesulfonyl}-2-(3-trifluoromethyl-phenyl)-1,3,8-triaza-spiro[4.5]dec-1-en-4-one] was run?
Answer: 84%

Question: For `Cc1cc(C(=O)N(C)C)ccc1CCS(=O)(=O)N1CCC2(CC1)N=C(COc1ccc(Cl)cc1Cl)NC2=O` [Compound 131, 4-{2-[2-(2,4-dichloro-phenoxymethyl)-4-oxo-1,3,8-triaza-spiro[4.5]dec-1-ene-8-sulfonyl]-ethyl}-3,N,N-trimethyl-benzamide], which “cAMP production activity (%)” value is on record?
Answer: 72%

Question: For `Cc1cc(NCC(N)=O)ccc1/C=C/S(=O)(=O)N1CCC2(CC1)N=C(c1cccc(OC(F)(F)F)c1)NC2=O` [Compound 529, 2-(3-methyl-4-{(E)-2-[4-oxo-2-(3-trifluoromethoxy-phenyl)-1,3,8-triaza-spiro[4.5]dec-1-ene-8-sulfonyl]-vinyl}-phenylamino)-acetamide], which “cAMP production activity (%)” value is on record?
Answer: 68%
